31 molecules from patent publication US20120142771A1, “BIPHENYLACETAMIDE DERIVATIVE” (Dainippon Sumitomo Pharma Co., Ltd., priority 2008, published 2012) can be followed below.

Assay [1] relates to subcutaneously pentetrazol-injected model (scPTZ). The assay is described as follows: Subcutaneously pentetrazol-injected model (scPTZ) test. Format: in vivo, mice. Conditions: for responders at 100 mg/kg / responders at 50 mg/kg: Mus musculus, po, 1 h; for anticonvulsant action in subcutaneously pentetrazol-injected model (scPTZ) test: mice, oral 50 or 100 mg/kg. From the text:
In order to evaluate the antiepileptic activity of each drug, maximum electroshock seizure (MES) model, subcutaneously pentetrazol-injected model (scPTZ), and amygdala kindling model in rats were used because they show a good clinical prediction. […] Test with Subcutaneously Pentetrazol-Injected Model (scPTZ) Similar to Test 1, Test 2 evaluates the anticonvulsant action of medicaments. However, unlike Test 1, animal model used herein represents the clinical phenotypes of generalized absence seizure and myoclonic seizure. Test compounds (50 or 100 mg/kg) were orally administered to Slc: ddY male mice (3 mice in each group, body weight 20-30 g). After an hour, pentetrazol (85 mg/kg) was subcutaneously administered. […] To the control mice, 0.5% tragacanth solution or 0.5% methylcellulose solution was administered.

In assay [2] the test system is maximum electroshock seizure (MES) model. Kind of assay: Maximum electroshock seizure (MES) model test. The format is in vivo, mice. Conditions: for responders at 100 mg/kg / responders at 50 mg/kg: Mus musculus, po, 1 h; for responders at 100 mg/kg / responders at 50 mg/kg / MES (positive number/tested number): inhibition of hind limb extension; for anticonvulsant action in maximum electroshock seizure (MES) model test: mice, oral 50 or 100 mg/kg, 1 hour after administration. The source says: In order to evaluate the antiepileptic activity of each drug, maximum electroshock seizure (MES) model, subcutaneously pentetrazol-injected model (scPTZ), and amygdala kindling model in rats were used because they show a good clinical prediction.
Test 1: Test with Maximum Electroshock Seizure (MES) Model
Test 1 evaluates the anticonvulsant action of medicaments. Animal model used herein represents the clinical phenotypes of generalized tonic seizure and secondarily generalized tonic-clonic seizure. Test compounds (50 or 100 mg/kg) were orally administered to Slc: ddY male mice (3 mice in each group, body weight 20-30 g). After an hour of administration, their corneas were electrically stimulated (60 Hz, 25 mA, 0.2 second) to induce tonic convulsion (tonic extensor in their hind limbs). […] To the control mice, 0.5% tragacanth solution or 0.5% methylcellulose solution was administered.

Where [3] appears, read: 100 mg/kg oral, Slc: ddY male mice, 3 per group, pentetrazol 85 mg/kg s.c. after 1 hour, observed 30 minutes for clonic convulsion, read-out: scPTZ (positive number/tested number) (converted).
Where [4] appears, read: 100 mg/kg oral, Slc: ddY male mice, 3 per group, electrical stimulation 1 hour after administration, read-out: MES (positive number/tested number) (converted).
Where [5] appears, read: 50 mg/kg oral, Slc: ddY male mice, 3 per group, pentetrazol 85 mg/kg s.c. after 1 hour, observed 30 minutes for clonic convulsion, read-out: scPTZ (positive number/tested number) (converted).
Where [6] appears, read: 50 mg/kg oral, Slc: ddY male mice, 3 per group, electrical stimulation 1 hour after administration, read-out: MES (positive number/tested number) (converted).
[7] abbreviates: 100 mg/kg oral, Slc: ddY male mice, 3 per group, pentetrazol 85 mg/kg s.c. after 1 hour, observed 30 minutes for clonic convulsion.
The mark [8] stands for this setting: pentetrazol 85 mg/kg s.c. after 1 hour.

Each structure is given as a SMILES string. Where two headings read alike, the source gives them in different places.

Take `N#Cc1c(-c2ccccc2CC(N)=O)cccc1C(F)(F)F` [Example 108]: the responders at 100 mg/kg in assay [1] (setting [3]) was 66.7%; in assay [2] (setting [4]) it was 0%.
Taken in the same sequence, the figures for `NC(=O)Cc1ccccc1-c1cccc(Cl)c1F` [Example 85] were 33.3% and 100%.
Taken in the same sequence, the figures for `NC(=O)Cc1cc(F)ccc1-c1cccc(F)c1` [Example 133] were 33.3% and 100%.
`NC(=O)Cc1ccc(Cl)cc1-c1ccccc1F` [Example 125, 2-(5-chloro-2′-fluorobiphenyl-2-yl)acetamide]: the responders at 50 mg/kg in assay [1] (setting [5]) is 33.3%; in assay [2] (setting [6]), 66.7%. Further, the values for the responders at 100 mg/kg in assay [1] (setting [3]) and in assay [2] (setting [4]) were 66.7% and 100%, respectively.
On to `NC(=O)Cc1ccc(Cl)cc1-c1ccccc1` [Example 123], for which the responders at 100 mg/kg is 33.3% in assay [1] (setting [3]) and 100% in assay [2] (setting [4]).
Take `NC(=O)Cc1ccc(F)cc1-c1cccc(F)c1` [Example 120]: the responders at 100 mg/kg in assay [1] (setting [3]) was 33.3%; in assay [2] (setting [4]) it was 100%. The responders at 50 mg/kg in assay [2] (setting [6]) is 0%.
Turning to `CNC(=O)C(F)c1ccccc1-c1cccc(F)c1` (stereo not drawn) [Example 161], the responders at 100 mg/kg in assay [1] (setting [3]) was 0%; in assay [2] (setting [4]), 66.7%.
For `CC(C)(C)NC(=O)Cc1ccccc1-c1ccccc1F` [Example 145], in that order: 33.3% and 0%.
Turning to `NC(=O)Cc1c(F)cccc1-c1ccccc1` [Example 118, 2-(3-fluorobiphenyl-2-yl)acetamide], the responders at 100 mg/kg in assay [1] (setting [3]) was 33.3%; in assay [2] (setting [4]) it was 100%. Also, in assay [2] (setting [6]), the responders at 50 mg/kg is 100%.
In the case of `NC(=O)Cc1ccccc1-c1cc(F)ccc1C(F)(F)F` [Example 82], the responders at 100 mg/kg in assay [1] (setting [3]) is 100%; in assay [2] (setting [4]), 33.3%.
Regarding `CNC(=O)C1(c2ccccc2-c2ccccc2)CC1` [Example 156], the responders at 100 mg/kg was 33.3% in assay [1] (setting [3]) and 100% in assay [2] (setting [4]). Also, the responders at 50 mg/kg in assay [2] (setting [6]) is 0%.
Take `CNC(=O)Cc1ccccc1-c1cc(F)cc(C(F)(F)F)c1` [Example 102]: the responders at 100 mg/kg in assay [1] (setting [3]) is 66.7%; in assay [2] (setting [4]), 0%.
As to `NC(=O)C(O)c1ccccc1-c1ccccc1F` (single isomer, unassigned) [Example 214, 2-(2′-Fluorobiphenyl-2-yl)-2-hydroxyacetamide], in assay [1] (setting [7]), the “scPTZ (positive number/tested number)” value is given as 1/3. Further, the “MES (positive number/tested number)” value is 2/3 in assay [2] (50 mg/kg oral, Slc: ddY male mice, 3 per group, electrical stimulation 1 hour after administration) and 3/3 in assay [2] (100 mg/kg oral, Slc: ddY male mice, 3 per group, electrical stimulation 1 hour after administration).
In the case of `CNC(=O)Cc1ccc(F)cc1-c1ccccc1` [Example 40], the responders at 100 mg/kg in assay [1] (setting [3]) was 0%; in assay [2] (setting [4]), 100%. Besides, the responders at 50 mg/kg in assay [2] (setting [6]) was 33.3%.
On to `NC(=O)Cc1ccccc1-c1ccc(Br)cc1` [Example 49, 2-(4′-Bromobiphenyl-2-yl)acetamide], for which the responders at 50 mg/kg in assay [1] (setting [5]) and in assay [2] (setting [6]) was 0% in each case. Besides, the responders at 100 mg/kg in assay [1] (setting [3]) and in assay [2] (setting [4]) was 66.7% each time.
As to `NC(=O)C(F)c1ccccc1-c1ccccc1` (stereo not drawn) [Example 162, 2-(biphenyl-2-yl)-2-fluoroacetamide], the responders at 50 mg/kg was 100% in assay [1] (read-out: scPTZ (positive number/tested number), 50 mg/kg oral, Slc: ddY male mice, 3 per group, pentetrazol 85 mg/kg s.c. after 1 hour, observed 30 minutes for clonic convulsion) and 100% in assay [2] (read-out: MES (positive number/tested number), 50 mg/kg oral, Slc: ddY male mice, 3 per group, electrical stimulation 1 hour after administration). Further, the responders at 100 mg/kg in assay [1] (read-out: scPTZ (positive number/tested number), 100 mg/kg oral, Slc: ddY male mice, 3 per group, pentetrazol 85 mg/kg s.c. after 1 hour, observed 30 minutes for clonic convulsion) was 100%; in assay [2] (read-out: MES (positive number/tested number), 100 mg/kg oral, Slc: ddY male mice, 3 per group, electrical stimulation 1 hour after administration) it was 100%. For the same molecule, the “anticonvulsant action in subcutaneously pentetrazol-injected model (scPTZ) test” value in assay [1] (setting [8]) is listed as “anticonvulsant action was observed”. For the same molecule, the “anticonvulsant action in maximum electroshock seizure (MES) model test” value in assay [2] was “anticonvulsant action was observed”.
Take `CNC(=O)Cc1ccc(F)cc1-c1ccccc1F` [Example 42]: the responders at 50 mg/kg in assay [1] (setting [5]) is 33.3%. For the same molecule, the responders at 100 mg/kg in assay [1] (setting [3]) is 66.7%; in assay [2] (setting [4]) it was 33.3%.
`NC(=O)Cc1ccc(F)cc1-c1cc(Cl)cc(Cl)c1` [Example 150, 2-(3′,5′-dichloro-5-fluorobiphenyl-2-yl)acetamide]: the results for the responders at 50 mg/kg in assay [1] (setting [5]) and in assay [2] (setting [6]) were 33.3% and 100%, respectively. Further, the responders at 100 mg/kg in assay [1] (setting [3]) and in assay [2] (setting [4]) was 100% each time.
Consider `COC(C(=O)N(C)C)c1ccccc1-c1ccc(F)cc1` (stereo not drawn) [Example 205, 2-(4′-fluorobiphenyl-2-yl)-2-methoxy-N,N-dimethylacetamide], for which the responders at 50 mg/kg in assay [1] (setting [5]) is 33.3%; in assay [2] (setting [6]) it was 0%. Further, the values for the responders at 100 mg/kg in assay [1] (setting [3]) and in assay [2] (setting [4]) were 66.7% and 100%, respectively.
In the case of `CNC(=O)Cc1ccc(Cl)cc1-c1cccc(Cl)c1` [Example 128], the results for the responders at 100 mg/kg in assay [1] (setting [3]) and in assay [2] (setting [4]) were 0% and 66.7%, respectively.
As for `NC(=O)C(O)c1ccccc1-c1ccccc1Cl` (single isomer, unassigned) [Example 220, 2-(2′-chlorobiphenyl-2-yl)-2-hydroxyacetamide], the responders at 50 mg/kg in assay [1] (setting [5]) was 33.3%; in assay [2] (setting [6]) it was 100%. Also, the responders at 100 mg/kg in assay [1] (setting [3]) and in assay [2] (setting [4]) was 100% throughout.
For `CNC(=O)C(C)c1ccccc1-c1ccccc1` (stereo not drawn) [Example 57, 2-(biphenyl-2-yl)-N-methyl propanamide], the responders at 50 mg/kg in assay [1] (setting [5]) and in assay [2] (setting [6]) was 66.7% in each case. The responders at 100 mg/kg in assay [1] (setting [3]) and in assay [2] (setting [4]) was 66.7% each time. In addition, the “anticonvulsant action in subcutaneously pentetrazol-injected model (scPTZ) test” value in assay [1] (setting [8]) was “anticonvulsant action was observed”. Further, the “anticonvulsant action in maximum electroshock seizure (MES) model test” value in assay [2] was “anticonvulsant action was observed”.
As to `CNC(=O)C(OC)c1ccccc1-c1ccccc1F` (stereo not drawn) [Example 201, 2-(2′-fluorobiphenyl-2-yl)-2-methoxy-N-methylacetamide], the responders at 50 mg/kg in assay [1] (setting [5]) and in assay [2] (setting [6]) was 33.3% in each case. For the same molecule, the responders at 100 mg/kg in assay [1] (setting [3]) and in assay [2] (setting [4]) was 66.7% throughout.
Regarding `CNC(=O)Cc1c(F)cccc1-c1cccc(F)c1` [Example 141], the responders at 100 mg/kg was 0% in assay [1] (setting [3]) and 66.7% in assay [2] (setting [4]).
For `CCNC(=O)Cc1ccccc1-c1cccc(F)c1` [Example 27], the responders at 100 mg/kg was 33.3% in assay [1] (setting [3]) and 100% in assay [2] (setting [4]). Further, the responders at 50 mg/kg in assay [2] (setting [6]) is 0%.
With `NC(=O)Cc1cc(F)ccc1-c1cccc(Cl)c1` [Example 48, 2-(3′-chloro-4-fluorobiphenyl-2-yl)acetamide], the responders at 50 mg/kg in assay [1] (setting [5]) and in assay [2] (setting [6]) was 33.3% each time. For the same molecule, the responders at 100 mg/kg in assay [1] (setting [3]) and in assay [2] (setting [4]) was 100% each time.
Regarding `CNC(=O)Cc1cc(F)ccc1-c1ccccc1F` [Example 47, 2-(2′,4-difluorobiphenyl-2-yl)-N-methylacetamide], the responders at 100 mg/kg in assay [1] (setting [3]) was 0%; in assay [2] (setting [4]), 100%. Besides, the responders at 50 mg/kg in assay [2] (setting [6]) was 100%.
Turning to `NC(=O)Cc1cc(C(F)(F)F)ccc1-c1ccccc1` [Example 116], the responders at 50 mg/kg in assay [1] (setting [5]) is 33.3%. For the same molecule, the responders at 100 mg/kg is 66.7% in assay [1] (setting [3]) and 0% in assay [2] (setting [4]).
As to `CS(=O)(=O)c1ccc(-c2ccccc2CC(N)=O)cc1` [Example 77], the “scPTZ (positive number/tested number)” value in assay [1] (setting [7]) is 2/3. The responders at 100 mg/kg in assay [2] (setting [4]) is 0%.
`NC(=O)Cc1ccccc1-c1cccc(Cl)c1Cl` [Example 19]: the responders at 100 mg/kg is 0% in assay [1] (setting [3]) and 66.7% in assay [2] (setting [4]). Moreover, the responders at 50 mg/kg in assay [2] (setting [6]) was 33.3%.
Consider `CSc1cccc(-c2ccccc2CC(N)=O)c1` [Example 94], for which, in assay [1] (setting [3]), the responders at 100 mg/kg was 33.3%.
